In patent publication US11173173B2, “Methods for treating chemoresistant cancer-initiating cells” (UNIVERSITY OF CONNECTICUT, priority 2015, dated 2021):

Assays:
[1] = system: colon cancer; details: in vitro; cited from earlier work
[2] = cited from earlier work
[3] = system: BM cells isolated from leukemic Pten:β-cat^Act double mutants (LSCs, HSPCs); experiment: In vitro treatment of BM cells from leukemic mice, flow cytometry for LSCs and HSPCs; type: cell-based, mouse; details: BM cells from leukemic double mutants in vitro
Method: Doxorubicin, 0105375, and thioguanosine were added to 11, 33 or 100 nM and cultured for 72 hours and analyzed by flow cytometry for LSCs (a) and HSPCs (b) as in FIG. 1. Fold change before and after culture for each population is indicated relative to equivalent vehicle control concentrations.
Bone marrow cells from leukemic mice at 8 weeks post-induction were cultured overnight at 5-20×10^4 cells per well in 96-well U-bottom tissue culture plates (Becton, Dickinson and Company; Cat. No. 353077) in HSC expansion media in low O2 conditions as previously described (Perry, J. M. et al. Cooperation between both Wnt/{beta}-catenin and PTEN/PI3K/Akt signaling promotes primitive hematopoietic stem cell self-renewal and expansion. Genes Dev 25, 1928-1942 (2011)). Doxorubicin (Sigma; D1515), 0105375 ((S)-N-(2-bromobenzyl)-N-(1-hydroxy-3-phenylpropan-2-yl)ethenesulfonamide, University of Kansas CMLD compound), or Thioguanosine was mixed with HSC expansion media and added to the cultures to obtain final concentrations of 11, 33, 100 nM. Equivalent amounts of DMSO alone (vehicle control) were added to parallel cultures for comparison. Half-media changes were performed approximately every 24 hrs. Cultures were analyzed after 72 hrs exposure to the indicated drug.

[4] = system: pan β-catenin; experiment: Western analysis of pan β-catenin in compound-treated TOP and FOP cells; details: TOP and FOP cells treated 48 hours at EC90, EC50, EC25
Method: (§1) Cytotoxicity profiles (CTG) of compounds were also determined. […] TOP and FOP cells were treated with candidate compounds at EC90, EC50 and EC25 derived from (b) for 48 hours, washed and flash frozen for Western analysis (c).
(§2) Activity of compounds was tested against HEK-TOP cells vs. HEK FOP cells for inhibition of luciferase activity. The cytotoxicity profiles of the compounds were also tested using Cell Titer Glo assay (Promega) on HEK-TOP cell lines. […] The HEK cells and HEK Top cells were plated at 300,000 cells/well in 6 well plates and were treated in duplicate with EC90, EC50 and EC25 concentrations of the 25 repurchased compounds as well as three controls. After 48 h of exposure, the cells were washed with PBS and flash frozen. The frozen cells were lysed directly in plates for Western analysis.

[5] = system: pS^552-β-catenin; experiment: Western analysis of pS552-β-catenin in compound-treated TOP and FOP cells
Method: as §1, §2

Row | Compound | reversal of resistance to PI3K and Akt inhibitors [1] | activity in vivo [2] | potency relative to DXR [3] | effect on pan β-catenin (Western) [4] | inhibition of pS552-β-catenin (Western) ([5]; TOP and FOP cells treated 48 hours at EC90, EC50, EC25) | concentration needed to inhibit pS552-β-catenin ([5]; relatively high concentrations) [μM]
1 | Oc1nc(-c2ccc(C(F)(F)F)cc2)nc2c1CSCC2 [XAV-939] | reverse this resistance in vitro | low activity of this inhibitor in vivo |  |  |  | 
2 | C=CS(=O)(=O)N(Cc1ccccc1Br)[C@H](CO)Cc1ccccc1 [compound 0105375, (S)-N-(2-bromobenzyl)-N-(1-hydroxy-3-phenylpropan-2-yl)ethenesulfonamide] |  |  | far less potency than DXR | no significant effect on pan β-catenin | effectively inhibited pS^552-β-catenin | > 1
